Experimental data from patent US9796958B2, “Bacterial growth enhancer” (Plant Bioscience Limited, priority 2005, dated 2017).

Columns and labels:
Assay type in all cases: cell-based
L. casei = experiment: Delivery of lactoferrin-complexed 55Fe to bacteria in serum-SAPI; details: 55Fe-complexed human lactoferrin, tannic acid 50 μg/ml, other compounds 100 μM, BF 2% v/v
Experimental: (§1) L. casei and E. coli were added at around 5×10^6 CFU/ml to triplicate 1 ml serum-SAPI medium containing the additions shown in Table 2, and 2×10^5 cpm/ml of ^55Fe-complexed human lactoferrin. Tannic acid was used at 50 μg/ml, the other compounds were all used at 100 μM, final concentration; BF was used at 2% v/v. Cultures were incubated as described in the legend to FIG. 2, and growth enumerated on MRS agar (L. casei) or Luria agar (E. coli). ^55Fe incorporation was determined by scintillation counting of triplicate washed bacteria cultures.

E. coli = details: 55Fe-complexed human lactoferrin, tannic acid 50 μg/ml, other compounds 100 μM, BF 2% v/v
Experimental: as §1

LAB = LAB growth response to catecholamines in serum-based media; details: serum-based media only

Row | Molecule | 55Fe incorporation/ml of culture (L. casei) | 55Fe incorporation/ml of culture (E. coli) | Increase in LAB growth (LAB)
1 | O=C(O)/C=C/c1ccc(O)c(O)c1 [Caffeic acid] | 29 | 11385 | 
2 | O=C(/C=C/c1ccc(O)c(O)c1)O[C@@H]1C[C@](O)(C(=O)O)C[C@@H](O)[C@H]1O [Chlorogenic acid] | 28 | 7374 | 
3 | NCCc1ccc(O)c(O)c1 [Dopamine] | 48 | 6815 | around 2 log-fold
4 | NC[C@H](O)c1ccc(O)c(O)c1 [Noradrenaline] | 29 | 8542 | around 2 log-fold
5 | O=C(OC[C@H]1O[C@@H](OC(=O)c2cc(O)c(O)c(OC(=O)c3cc(O)c(O)c(O)c3)c2)[C@H](OC(=O)c2cc(O)c(O)c(OC(=O)c3cc(O)c(O)c(O)c3)c2)[C@@H](OC(=O)c2cc(O)c(O)c(OC(=O)c3cc(O)c(O)c(O)c3)c2)[C@@H]1OC(=O)c1cc(O)c(O)c(OC(=O)c2cc(O)c(O)c(O)c2)c1)c1cc(O)c(O)c(OC(=O)c2cc(O)c(O)c(O)c2)c1 [Tannic acid] | 28 | 13952 | 
6 | Catechin | 57 | 3931 | 
